# Several values for one entry are separate records, joined by “and”; a condition that tells them apart may be missing. Equal values may be shown once.
# How the values were obtained:
# [1] = Treatment-emergent adverse events; format: in vivo, human
# Vital signs = format: in vivo, human; conditions: single treatment (LDX alone Arm A; VXR alone Arm B)
# [2] = system: cytochrome P450 (CYP) isoenzyme; conditions: any CYP isoenzyme tested to date; cited from earlier work
# [3] = Plasma pharmacokinetics of LDX, d-amphetamine, VEN and ODV; conditions: mean (SD), day 15
# CYP2D6 [4] = conditions: cited from earlier work
# CYP2D6 [5] = assay: In vivo CYP2D6 interaction, VXR as CYP2D6 substrate coadministered with LDX; conditions: inferred from VEN increase and ODV decrease with LDX + VXR coadministration
# Bioequivalence test = conditions: for AUC / Cmax: human, in vivo; for AUCτ test/reference ratio [90 % CI] / Cmax test/reference ratio [90 % CI]: LDX + VXR Day 30 vs VXR alone Day 15, Treatment Arm B
# [6] = treatment arms combined, LDX alone n = 40 and VXR alone n = 37 during dose titration periods, LDX + VXR n = 67
smiles,measurement,setting,value
"CS(=O)(=O)O.CS(=O)(=O)O.C[C@@H](Cc1ccccc1)NC(=O)[C@@H](N)CCCCN [LDX, Lisdexamfetamine dimesylate]",Time to resolution of serious AE (presyncope),"[1]; one participant, LDX 30 mg/day",≤ 10 min
same,Any TEAE,[1]; [6],33 (82.5) n (%)
same,TEAE Anorexia,[1]; [6],12 (30.0) n (%)
same,TEAE Anxiety,[1]; [6],5 (12.5) n (%)
same,TEAE Back pain,[1]; [6],2 (5.0) n (%)
same,TEAE Chest pain,[1]; [6],3 (7.5) n (%)
same,TEAE Constipation,[1]; [6],3 (7.5) n (%)
same,TEAE Diarrhoea,[1]; [6],2 (5.0) n (%)
same,TEAE Dizziness,[1]; [6],3 (7.5) n (%)
same,TEAE Dry mouth,[1]; [6],10 (25.0) n (%)
same,TEAE Dyspnoea,[1]; [6],2 (5.0) n (%)
same,TEAE Epistaxis,[1]; [6],0 (0.0) n (%)
same,TEAE Euphoric mood,[1]; [6],3 (7.5) n (%)
same,TEAE Headache,[1]; [6],7 (17.5) n (%)
same,TEAE Insomnia,[1]; [6],7 (17.5) n (%)
same,TEAE Libido decreased,[1]; [6],0 (0.0) n (%)
same,TEAE Nausea,[1]; [6],6 (15.0) n (%)
same,TEAE Palpitations,[1]; [6],8 (20.0) n (%)
same,TEAE Somnolence,[1]; [6],7 (17.5) n (%)
same,TEAE Stomach discomfort,[1]; [6],2 (5.0) n (%)
same,TEAE Testicular pain,[1]; [6],0 (0.0) n (%)
same,TEAE Urinary hesitation,[1]; [6],0 (0.0) n (%)
same,TEAE Vision blurred,[1]; [6],2 (5.0) n (%)
same,Maximum mean increase in DBP,Vital signs,~6 mmHg
same,Maximum mean increase in SBP,Vital signs,~7 mmHg
same,Maximum mean increase in pulse rate,Vital signs,approximately 13 beats/min
same,Inhibition of CYP isoenzymes,[2],does not inhibit
same,AUCτ,[3]; after LDX alone 70 mg/day,65.5 (44.0) ng·h/mL
same,Cmax,[3]; after LDX alone 70 mg/day,49.1 (32.25) ng/mL
same,tmax,[3]; after LDX alone 70 mg/day,1.1 (0.3) h
same,t½,[3]; after LDX alone 70 mg/day,0.4 (0.1) h
"C[C@H](N)Cc1ccccc1 [d-Amphetamine, dextroamphetamine]",Inhibition of CYP2D6 activity,CYP2D6 [4],weakly inhibits
same,"Inhibition of CYP2D6 activity, from current pharmacokinetic findings",CYP2D6 [5],weak inhibitor
same,AUC,Bioequivalence test; 70 mg/day,1110 ng·h/mL
same,Cmax,Bioequivalence test; 70 mg/day,85.9 ng/mL
"COc1ccc(C(CN(C)C)C2(O)CCCCC2)cc1 (centres unmarked) [VEN, Venlafaxine]",AUCτ test/reference ratio [90 % CI],Bioequivalence test,"1.13 [0.88, 1.45] and 1.129 [0.88, 1.45]"
same,Cmax test/reference ratio [90 % CI],Bioequivalence test,"1.10 [0.88, 1.38] and 1.103 [0.881, 1.38]"
same,Geometric least squares mean Cmax,"Bioequivalence test; VXR alone, Day 15, Treatment Arm B",180.7 ng/mL
same,AUC,Bioequivalence test; 225 mg/day,2410 ng·h/mL
same,tmax,[3]; after VXR alone 225 mg/day,6.4 (0.8) h
"CN(C)CC(c1ccc(O)cc1)C1(O)CCCCC1 (centres unmarked) [ODV, O-desmethylvenlafaxine]",AUCτ test/reference ratio [90 % CI],Bioequivalence test,"0.83 [0.71, 0.96] and 0.826 [0.713, 0.956]"
same,Cmax test/reference ratio [90 % CI],Bioequivalence test,"0.907 [0.777, 1.058]"
same,AUC,Bioequivalence test; 225 mg/day,8080 ng·h/mL
same,Cmax,Bioequivalence test; 225 mg/day,392 ng/mL
